Results: patent publication US12239643B2, “Therapeutic agent for inflammatory diseases, autoimmune diseases, fibrotic diseases, and cancer diseases” (MEIJI SEIKA PHARMA CO., LTD., priority 2018, dated 2025)
Read-outs that look alike come from different tables or passages of the source.

Tested on: PDE4
Assay: Evaluation of PDE4 inhibitory activity, scintillation proximity assay
Type: biochemical
Details: scintillation proximity assay
Procedure, shortened: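 IC50 was derived from inhibition curves, referenced to an enzyme-free blank and a DMSO-only control. Compound, PDE4 preparation and tritiated cAMP reacted 120 min at RT in Tris-HCl buffer (pH 7.4) with MgCl2, EGTA and BSA; YSi-SPA beads with ZnSO4 bound product before scintillation counting.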

[1] = class symbols of Evaluation 1, read-out: PDE4 Inhibitory Activity (concentration for the inhibition rate of 50%, IC50), Evaluation 1
[2] = read-out: PDE4 Inhibitory Activity (Evaluation 1; concentration for the inhibition rate of 50%)

SMILES | IC50 [1] [µM] | IC50 [2] [µM]
Clc1ccc(-c2nccs2)c2oc(N3CC4CC(C3)N4)nc12 [Example 37, 2-(3,6-Diazabicyclo[3.1.1]heptan-3-yl)-4-chloro-7-(thiazol-2-yl)benzo[d]oxazole] | < 0.1 | 
CC(C)(O)C(Oc1ccc(-c2nccs2)c2oc(N3CC4CC(C3)N4)nc12)C(F)(F)F (stereo not drawn) [Example 313, 3-((2-(3,6-Diazabicyclo[3.1.1]heptan-3-yl)-7-(thiazol-2-yl)benzo[d]oxazol-4-yl)oxy)-4,4,4-trifluoro-2-methylbutan-2-ol] |  | < 0.1
FC(F)(F)c1c(Cl)cc(-c2ccccn2)c2oc(N3CC4CC(C3)N4)nc12 [Example 13, 2-(3,6-Diazabicyclo[3.1.1]heptan-3-yl)-5-chloro-7-(pyridin-2-yl)-4-(trifluoromethyl)benzo[d]oxazole] | < 0.1 | 
Cc1ccc(-c2nccs2)c2oc(N3CC4CCCC(C3)N4)nc12 [Example 27, 2-(3,9-Diazabicyclo[3.3.1]nonan-3-yl)-4-methyl-7-(thiazol-2-yl)benzo[d]oxazole] | < 0.1 | 
OC(c1cc(-c2cscn2)c2oc(N3CC4CC(C3)N4)nc2c1OC(F)(F)F)C(F)F (stereo not drawn) [Example 300, 1-(2-(3,6-Diazabicyclo[3.1.1]heptan-3-yl)-7-(thiazol-4-yl)-4-(trifluoromethoxy)benzo[d]oxazol-5-yl)-2,2-difluoroethan-1-ol] |  | < 0.1
OC(c1cc(-c2nccs2)c2oc(N3CC4CCC(C3)N4)nc2c1OC(F)(F)F)C(F)F (stereo not drawn) [Example 276, 1-(2-(3,8-Diazabicyclo[3.2.1]octan-3-yl)-7-(thiazol-2-yl)-4-(trifluoromethoxy)benzo[d]oxazol-5-yl)-2,2-difluoroethan-1-ol] |  | < 0.1
CC(C)(O)c1cc(-c2nccs2)c2oc(N3CC4CCCC(C3)N4)nc2c1OC(F)(F)F [Example 197, 2-(2-(3,9-Diazabicyclo[3.3.1]nonan-3-yl)-7-(thiazol-2-yl)-4-(trifluoromethoxy)benzo[d]oxazol-5-yl)propan-2-ol] |  | < 0.1
CS(=O)(=O)c1cc(-c2nccs2)c2oc(N3CC4CC(C3)N4)nc2c1 [Example 46, 2-(3,6-Diazabicyclo[3.1.1]heptan-3-yl)-5-(methylsulfonyl)-7-(thiazol-2-yl)benzo[d]oxazole] | < 0.1 | 
c1csc(-c2ccc(C3CCC3)c3nc(N4CC5CC(C4)N5)oc23)n1 [Example 414, 2-(3,6-Diazabicyclo[3.1.1]heptan-3-yl)-4-cyclobutyl-7-(thiazol-2-yl)benzo[d]oxazole] |  | < 0.1
CCOC(=O)c1cc(-c2nccs2)c2oc(N3CC4CCCC(C3)N4)nc2c1 [Example 89, Ethyl 2-(3,9-diazabicyclo[3.3.1]nonan-3-yl)-7-(thiazol-2-yl)benzo[d]oxazole-5-carboxylate] | < 0.1 | 
OC(c1cc(-c2cscn2)c2oc(N3CC4CC(C3)N4)nc2c1OC(F)(F)F)C(F)F (stereo not drawn) [Example 301, 1-(2-(3,6-Diazabicyclo[3.1.1]heptan-3-yl)-7-(thiazol-4-yl)-4-(trifluoromethoxy)benzo[d]oxazol-5-yl)-2,2-difluoroethan-1-ol] |  | < 0.1
COc1cc(-c2nccs2)c2oc(N3CC4CC(C3)N4)nc2c1 [Example 61, 2-(3,6-Diazabicyclo[3.1.1]heptan-3-yl)-5-methoxy-7-(thiazol-2-yl)benzo[d]oxazole] | < 0.1 | 
CC(O)(c1ccc(-c2nccs2)c2oc(N3CC4CC(C3)N4)nc12)C(F)(F)F (stereo not drawn) [Example 270, 2-(2-(3,6-Diazabicyclo[3.1.1]heptan-3-yl)-7-(thiazol-2-yl)benzo[d]oxazol-4-yl)-1,1,1-trifluoropropan-2-ol] |  | < 0.1
OC(c1cc(-c2nccs2)c2oc(N3CC4CCCC(C3)N4)nc2c1)C(F)(F)F (stereo not drawn) [Example 136, 1-(2-(3,9-Diazabicyclo[3.3.1]nonan-3-yl)-7-(thiazol-2-yl)benzo[d]oxazol-5-yl)-2,2,2-trifluoroethan-1-ol] | < 0.1 | 
O=C(O)c1ccc(-c2nccs2)c2oc(N3CC4CCC(C3)N4)nc12 [Example 238, 2-(3,8-Diazabicyclo[3.2.1]octan-3-yl)-7-(thiazol-2-yl)benzo[d]oxazole-4-carboxylic acid] |  | < 0.1
CN(CCO)S(=O)(=O)c1ccc(-c2nccs2)c2oc(N3CC4CC(C3)N4)nc12 [Example 389, 2-(3,6-Diazabicyclo[3.1.1]heptan-3-yl)-N-(2-hydroxyethyl)-N-methyl-7-(thiazol-2-yl)benzo[d]oxazole-4-sulfonamide] |  | < 0.1
OCc1cc(-c2nccs2)c2oc(N3CC4CCC(C3)N4)nc2c1C(F)(F)F [Example 170, (2-(3,8-Diazabicyclo[3.2.1]octan-3-yl)-7-(thiazol-2-yl)-4-(trifluoromethyl)benzo[d]oxazol-5-yl)methanol] | < 0.1 | 
CC(=O)c1cc(-c2nccs2)c2oc(N3CC4CC(C3)N4)nc2c1C(F)(F)F [Example 180, 1-(2-(3,6-Diazabicyclo[3.1.1]heptan-3-yl)-7-(thiazol-2-yl)-4-(trifluoromethyl)benzo[d]oxazol-5-yl)ethan-1-one] | < 0.1 | 

SMILES | IC50 [1] [µM] | IC50 [2] [µM]
C=CC(F)(F)Oc1ccc(-c2nccs2)c2oc(N3CC4CC(C3)N4)nc12 [Example 351, 2-(3,6-Diazabicyclo[3.1.1]heptan-3-yl)-4-((1,1-difluoroallyl)oxy)-7-(thiazol-2-yl)benzo[d]oxazole] |  | < 0.1
OC(O)(c1cc(-c2nccs2)c2oc(N3CC4CCC(C3)N4)nc2c1)C(F)(F)F [Example 157, 1-(2-(3,8-Diazabicyclo[3.2.1]octan-3-yl)-7-(thiazol-2-yl)benzo[d]oxazol-5-yl)-2,2,2-trifluoroethane-1,1-diol] | < 0.1 | 
CS(=O)(=O)c1cc(-c2nccs2)c2oc(N3CC4CCCC(C3)N4)nc2c1 [Example 47, 2-(3,9-Diazabicyclo[3.3.1]nonan-3-yl)-5-(methylsulfonyl)-7-(thiazol-2-yl)benzo[d]oxazole] | < 0.1 | 
OC(c1cc(-c2cscn2)c2oc(N3CC4CCC(C3)N4)nc2c1OC(F)(F)F)C(F)F (stereo not drawn) [Example 302, 1-(2-(3,8-Diazabicyclo[3.2.1]octan-3-yl)-7-(thiazol-4-yl)-4-(trifluoromethoxy)benzo[d]oxazol-5-yl)-2,2-difluoroethan-1-ol] |  | < 0.1
CC(=O)Nc1ccc(-c2nccs2)c2oc(N3CC4CC(C3)N4)nc12 [Example 35, N-(2-(3,6-diazabicyclo[3.1.1]heptan-3-yl)-7-(thiazol-2-yl)benzo[d]oxazol-4-yl)acetamide] | 0.1 to 1 | 
CC(C)(O)C(F)(F)Oc1ccc(-c2ccccn2)c2oc(N3CC4CC(C3)N4)nc12 [Example 289, 1-((2-(3,6-Diazabicyclo[3.1.1]heptan-3-yl)-7-(pyridin-2-yl)benzo[d]oxazol-4-yl)oxy)-1,1-difluoro-2-methylpropan-2-ol] |  | < 0.1
CC(O)c1cc(-c2nccs2)c2oc(N3CC4CC(C3)N4)nc2c1OC(F)(F)F (stereo not drawn) [Example 272, 1-(2-(3,6-Diazabicyclo[3.1.1]heptan-3-yl)-7-(thiazol-2-yl)-4-(trifluoromethoxy)benzo[d]oxazol-5-yl)ethan-1-ol] |  | < 0.1
CC(O)C(F)(F)OC(c1ccc(-c2nccs2)c2oc(N3CC4CC(C3)N4)nc12)C(F)(F)F (stereo not drawn) [Example 265, 1-(1-(2-(3,6-Diazabicyclo[3.1.1]heptan-3-yl)-7-(thiazol-2-yl)benzo[d]oxazol-4-yl)-2,2,2-trifluoroethoxy)-1,1-difluoropropan-2-ol] |  | < 0.1
NS(=O)(=O)c1cc(-c2nccs2)c2oc(N3CC4CCC(C3)N4)nc2c1 [Example 57, 2-(3,8-Diazabicyclo[3.2.1]octan-3-yl)-7-(thiazol-2-yl)benzo[d]oxazole-5-sulfonamide] | < 0.1 | 
O=S(=O)(c1ccc(-c2nccs2)c2oc(N3CC4CC(C3)N4)nc12)N1CCCC1 [Example 390, 2-(3,6-Diazabicyclo[3.1.1]heptan-3-yl)-4-(pyrrolidin-1-ylsulfonyl)-7-(thiazol-2-yl)benzo[d]oxazole] |  | < 0.1
FC(F)(F)Oc1c(Cl)cc(-c2nccs2)c2oc(N3CC4CCCC(C3)N4)nc12 [Example 2, 2-(3,9-Diazabicyclo[3.3.1]nonan-3-yl)-5-chloro-7-(thiazol-2-yl)-4-(trifluoromethoxy)benzo[d]oxazole] | < 0.1 | 
COC(C)c1ccc(-c2nccs2)c2oc(N3CC4CC(C3)N4)nc12 (stereo not drawn) [Example 241, 2-(3,6-Diazabicyclo[3.1.1]heptan-3-yl)-4-(1-methoxyethyl)-7-(thiazol-2-yl)benzo[d]oxazole] |  | < 0.1
CC(=O)Nc1cc(-c2nccs2)c2oc(N3CC4CCC(C3)N4)nc2c1 [Example 50, N-(2-(3,8-diazabicyclo[3.2.1]octan-3-yl)-7-(thiazol-2-yl)benzo[d]oxazol-5-yl)acetamide] | < 0.1 | 
CC(=O)N(C)c1cc(-c2nccs2)c2oc(N3CC4CCC(C3)N4)nc2c1 [Example 101, N-(2-(3,8-diazabicyclo[3.2.1]octan-3-yl)-7-(thiazol-2-yl)benzo[d]oxazol-5-yl)-N-methylacetamide] | < 0.1 | 
FC(F)(F)Oc1c(Cl)cc(-c2ccco2)c2oc(N3CC4CCC(C3)N4)nc12 [Example 6, 2-(3,8-Diazabicyclo[3.2.1]octan-3-yl)-5-chloro-7-(furan-2-yl)-4-(trifluoromethoxy)benzo[d]oxazole] | < 0.1 | 
COc1ccc(-c2nccs2)c2oc(N3CC4CCCC(C3)N4)nc12 [Example 77, 2-(3,9-Diazabicyclo[3.3.1]nonan-3-yl)-4-methoxy-7-(thiazol-2-yl)benzo[d]oxazole] | < 0.1 | 
CSc1cc(-c2nccs2)c2oc(N3CC4CCCC(C3)N4)nc2c1 [Example 41, 2-(3,9-Diazabicyclo[3.3.1]nonan-3-yl)-5-(methylthio)-7-(thiazol-2-yl)benzo[d]oxazole] | < 0.1 | 
O=C(O)COC(c1ccc(-c2nccs2)c2oc(N3CC4CC(C3)N4)nc12)C(F)(F)F (stereo not drawn) [Example 253, 2-(1-(2-(3,6-Diazabicyclo[3.1.1]heptan-3-yl)-7-(thiazol-2-yl)benzo[d]oxazol-4-yl)-2,2,2-trifluoroethoxy)acetic acid] |  | < 0.1
